Assay results from patent publication US4053604A (priority 1975, dated 1977).
Entries after “also recorded” stand apart in the source; their conditions may differ.

Columns and labels:
[1] = induction time of rats exposed to halothane anesthesia (loss of righting reflex); assay type: in vivo, male albino rats (Sprague-Dawley)
Experimental: (§1) The effects of Compound I on halothane-induced anesthesia were assessed using 20 rats for each dose or time interval determination. The experiments were performed on male albino rats (Sprague-Dawley) weighing from 180-220 g. A schematic representation of the apparatus used is illustrated in FIG. 1. The apparatus consists of a rectangular box made of transparent plastic (115 cm long × 28 cm high × 28 cm wide) which is divided into 4 equal chambers by perforated walls. The box rotates around a hollow axis through which gases can be delivered at several proportions from cylinders, through their respective flowmeters. An in-line halothane vaporizer is placed just before the gases reach the chambers. There is an air-tight door to every chamber through which two animals, one treated and one control, are introduced. The gases are delivered at one end of the box and suction is applied to the other end to take up the gases after flowing through the chambers. An in-line water manometer monitors the resulting pressure. This pressure is kept at 0-5 mm H2 O to make certain the gases in the anesthetic chambers remain at atmospheric pressure. The mixture of gases is delivered at a rate of 15 l/min. The inhalation anesthetic gases are delivered for ten minutes prior to the introduction of the animals into the chambers to assure an even distribution in the four chambers. The chambers rotate at four rev/min forcing the animals to tumble and allowing the experimenter to accurately time the loss and recovery of the righting reflex. Induction times are recorded as the time interval elapsed between the beginning of exposure of the animals to the gases and the moment in which they lose their righting reflex.
(§2) Groups of control animals (four at a time) were subjected to halothane concentrations ranging from 0.5 to 2.5% in a mixture of 95% O2 -5% CO2, and the induction times thus obtained were used to calculate concentration-reponse curves. Since a certain time elapsed between putting the first and the last rat into their respective chambers, each animal was timed separately with a stopwatch. […] This intermediate concentration of halothane was then used to study the effects of increasing doses of the test compound on the induction times and anesthesia times.
(§3) The animals were pretreated by administering the test compounds in dosages ranging from 10 to 500 μg/kg, i.v., at 5, 30, 60, 120, 240 and 360 minutes prior to their exposure to halothane. As soon as all animals lost their righting reflex, the O2 -halothane flow was discontinued and replaced by an equal flow of air. The animals were allowed to remain in the rotating chambers until they regained their righting reflex. Anesthesia times were determined as the interval between the time required to lose and the time to regain the righting reflex. Air flushing of the anesthetic chambers was performed after each determination and the entire procedure repeated with another group of animals for the determination of the effect of a new dose or concentration.
(§4) Drugs used in this study include: droperidol, phenoperidine hydrochloride, halothane and Compound I in the form of its hydrochloride salt. Phenoperidine hydrochloride and Compound I (hydrochloride) were dissolved separately in a warm solution of 0.9% sodium chloride. Droperidol was suspended in saline with the aid of a drop ot Tween 80 (Tween 80 is a registered trademark for a complex mixture of polyoxyethylene ethers of mixed partial oleic esters of sorbitol anhydride). Dosages are expressed in this study as the salt form of the compound where applicable. When the experimental protocol called for the concomitant administration of two drugs, these were mixed in the syringe and administered intravenously. The drugs were injected in a volume of 0.1 ml/100 g body weight.
(§5) The statistical analysis of the data was performed using Student's […]. […]

[2] = anesthesia time of rats exposed to halothane anesthesia (recovery of righting reflex); assay type: in vivo, male albino rats (Sprague-Dawley)
Experimental: as §1, §2, §3, §4, §5

[3] = onset, duration of activity and cardiovascular effect (general statement); assay type: in vivo
[4] = in words; cited from earlier work
[5] = 10 μg/kg i.v., 5 min before 0.75% halothane
[6] = 10 μg/kg i.v., 5 min before 1.0% halothane
[7] = 10 μg/kg i.v., 5 min before 1.5% halothane
[8] = 10 μg/kg i.v., 5 min before 2.0% halothane
[9] = 10 μg/kg i.v., 5 min before 2.5% halothane
[10] = 25 μg/kg i.v., 5 min before 0.75% halothane
[11] = 25 μg/kg i.v., 5 min before 1.0% halothane
[12] = 25 μg/kg i.v., 5 min before 1.5% halothane
[13] = 25 μg/kg i.v., 5 min before 2.0% halothane
[14] = 25 μg/kg i.v., 5 min before 2.5% halothane
[15] = 50 μg/kg i.v., 5 min before 0.75% halothane
[16] = 50 μg/kg i.v., 5 min before 1.0% halothane
[17] = 50 μg/kg i.v., 5 min before 1.5% halothane
[18] = 50 μg/kg i.v., 5 min before 2.0% halothane
[19] = 50 μg/kg i.v., 5 min before 2.5% halothane
[20] = 100 μg/kg i.v., 5 min before 0.75% halothane
[21] = 100 μg/kg i.v., 5 min before 1.0% halothane
[22] = 100 μg/kg i.v., 5 min before 1.5% halothane
[23] = 100 μg/kg i.v., 5 min before 2.0% halothane
[24] = 100 μg/kg i.v., 5 min before 2.5% halothane
[25] = 200 μg/kg i.v., 5 min before 0.75% halothane
[26] = 200 μg/kg i.v., 5 min before 1.0% halothane
[27] = 200 μg/kg i.v., 5 min before 1.5% halothane
[28] = 200 μg/kg i.v., 5 min before 2.0% halothane
[29] = 200 μg/kg i.v., 5 min before 2.5% halothane
[30] = 250 μg/kg i.v., 5 min before 0.75% halothane
[31] = 250 μg/kg i.v., 5 min before 1.0% halothane
[32] = 250 μg/kg i.v., 5 min before 1.5% halothane
[33] = 250 μg/kg i.v., 5 min before 2.0% halothane
[34] = 250 μg/kg i.v., 5 min before 2.5% halothane

CC(C)[C@@]1(O)CCN2C[C@@H]3c4ccccc4CCc4cccc(c43)[C@H]2C1 [Compound 1, (+)(4a,13b-trans)-(3-hydroxy,13b-trans)-3-isopropyl-2,- 3,4,4a,8,9,13b,14-octahydro-lH-benzo[6,7]cyclohepta[1,2,3-de]pyrido[2,1-a]isoquinolin-3-ol]
Induction time, treated [1, 5]: 6.66 min
Induction time, treated [1, 6]: 2.67 min
Induction time, treated [1, 7]: 1.32 min
Induction time, treated [1, 8]: 0.72 min
Induction time, treated [1, 9]: 0.57 min
Induction time, treated [1, 10]: 6.30 min
Induction time, treated [1, 11]: 1.86 min
Induction time, treated [1, 12]: 1.02 min
Induction time, treated [1, 13]: 0.71 min
Induction time, treated [1, 14]: 0.58 min
Induction time, treated [1, 15]: 5.77 min
Induction time, treated [1, 16]: 1.62 min
Induction time, treated [1, 17]: 1.03 min
Induction time, treated [1, 18]: 0.75 min
Induction time, treated [1, 19]: 0.57 min
Induction time, treated [1, 20]: 4.05 min
Induction time, treated [1, 21]: 1.37 min
Induction time, treated [1, 22]: 1.13 min
Induction time, treated [1, 23]: 0.69 min
Induction time, treated [1, 24]: 0.54 min
Induction time, treated [1, 25]: 3.48 min
Induction time, treated [1, 26]: 1.31 min
Induction time, treated [1, 27]: 1.03 min
Induction time, treated [1, 28]: 0.64 min
Induction time, treated [1, 29]: 0.57 min
reduction of induction time ([1]; 200 μg/kg, i.v., 1% halothane): approximately 50%
Induction time, treated [1, 30]: 3.72 min
Induction time, treated [1, 31]: 1.67 min
Induction time, treated [1, 32]: 0.91 min
Induction time, treated [1, 33]: 0.67 min
Induction time, treated [1, 34]: 0.60 min
maximum decrease in induction time ([1]; Compound 1 (hydrochloride) alone, i.v., 5 min before 1% halothane (FIG. 2)): 45%
effect on induction time for the anesthetic ([1]; administered prior to anesthetic treatment, in words, listed as Compound I): decreased considerably; also recorded: substantially reduced
decrease in induction time, with phenoperidine ([1]; plus 25 μg/kg, i.v., phenoperidine hydrochloride, 1% halothane (FIG. 2)): about 65%
Anesthesia time, treated [2, 5]: 3.67 min
Anesthesia time, treated [2, 6]: 3.16 min
Anesthesia time, treated [2, 7]: 3.84 min
Anesthesia time, treated [2, 8]: 4.68 min
Anesthesia time, treated [2, 9]: 5.42 min
Anesthesia time, treated [2, 10]: 3.78 min
Anesthesia time, treated [2, 11]: 3.62 min
Anesthesia time, treated [2, 12]: 4.61 min
Anesthesia time, treated [2, 13]: 5.09 min
Anesthesia time, treated [2, 14]: 5.26 min
Anesthesia time, treated [2, 15]: 5.16 min
Anesthesia time, treated [2, 16]: 4.67 min
Anesthesia time, treated [2, 17]: 4.59 min
Anesthesia time, treated [2, 18]: 4.49 min
Anesthesia time, treated [2, 19]: 4.96 min
Anesthesia time, treated [2, 20]: 6.33 min
Anesthesia time, treated [2, 21]: 5.34 min
Anesthesia time, treated [2, 22]: 4.79 min
Anesthesia time, treated [2, 23]: 5.49 min
Anesthesia time, treated [2, 24]: 5.62 min
Anesthesia time, treated [2, 25]: 6.54 min
Anesthesia time, treated [2, 26]: 5.37 min
Anesthesia time, treated [2, 27]: 4.94 min
Anesthesia time, treated [2, 28]: 5.33 min
Anesthesia time, treated [2, 29]: 5.89 min
Anesthesia time, treated [2, 30]: 6.26 min
Anesthesia time, treated [2, 31]: 5.81 min
Anesthesia time, treated [2, 32]: 5.52 min
Anesthesia time, treated [2, 33]: 5.92 min
Anesthesia time, treated [2, 34]: 6.37 min
Anesthesia time, treated ([2]; 500 μg/kg i.v., 5 min before 1.0% halothane): 5.69 min
increase of anesthesia time ([2]; five minutes after i.v. administration, 1% halothane): approximately 70%
effect on anesthesia time ([2]; halothane, in words): increased considerably
duration of anesthesia effect with added analgesic ([2]; plus 25 μg/kg i.v. phenoperidine hydrochloride, 1% halothane (FIG. 3), in words): potentiates the duration of anesthesia effect
effect on the cardiovascular system ([3]; alone or in combination with a suitable analgesic agent, in words): little or no effect on the cardiovascular system
onset of action ([3]; in words): quick onset of action
duration of activity ([3]; relatively short duration): up to four
neuroleptic potency [4]: potent neuroleptic agent
